Assay results reported in PubChem BioAssay AID1963861 (Molecular Pharmacology Branch, DTP, NCI, 2024).

Tested on: 885724-159-R-J1-PDC KRAS PDC multicell spheroid viability
Assay: Anticancer human tumor 885724-159-R-J1-PDC patient-derived pancreatic adenocarcinoma cell line growth inhibition [KRAS2]
Settings: for IC50: curve of first compound; for viability, T/C: stronger effect = lower value
Summary of the method: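 Combination screen of spheroid viability in tumor-cell co-cultures with endothelial (HUVEC) and mesenchymal stem cell stroma. Each agent was tested in half-log dilutions, topping at clinical Cmax or at 10 microM without a known Cmax.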

[1] = second compound 0.0316 µM, first compound 0.0316 µM
[2] = second compound 0.0316 µM, first compound 0.1 µM
[3] = second compound 0.0316 µM, first compound 0.316 µM
[4] = second compound 0.0316 µM, first compound 1 µM
[5] = second compound 0.0316 µM, first compound 3.16 µM
[6] = second compound 0.0316 µM, first compound 10 µM
[7] = second compound 0.1 µM, first compound 0.0316 µM
[8] = second compound 0.1 µM, first compound 0.1 µM
[9] = second compound 0.1 µM, first compound 0.316 µM
[10] = second compound 0.1 µM, first compound 1 µM
[11] = second compound 0.1 µM, first compound 3.16 µM
[12] = second compound 0.1 µM, first compound 10 µM
[13] = second compound 0.316 µM, first compound 0.0316 µM
[14] = second compound 0.316 µM, first compound 0.1 µM
[15] = second compound 0.316 µM, first compound 0.316 µM
[16] = second compound 0.316 µM, first compound 1 µM
[17] = second compound 0.316 µM, first compound 3.16 µM
[18] = second compound 0.316 µM, first compound 10 µM
[19] = second compound 1 µM, first compound 0.0316 µM
[20] = second compound 1 µM, first compound 0.1 µM
[21] = second compound 1 µM, first compound 0.316 µM
[22] = second compound 1 µM, first compound 1 µM
[23] = second compound 1 µM, first compound 3.16 µM
[24] = second compound 1 µM, first compound 10 µM
[25] = second compound 3.16 µM, first compound 0.0316 µM
[26] = second compound 3.16 µM, first compound 0.1 µM
[27] = second compound 3.16 µM, first compound 0.316 µM
[28] = second compound 3.16 µM, first compound 1 µM
[29] = second compound 3.16 µM, first compound 3.16 µM
[30] = second compound 3.16 µM, first compound 10 µM
[31] = second compound 0.0316 µM, first compound 0.000316 µM
[32] = second compound 0.0316 µM, first compound 0.001 µM
[33] = second compound 0.0316 µM, first compound 0.00316 µM
[34] = second compound 0.0316 µM, first compound 0.01 µM
[35] = second compound 0.1 µM, first compound 0.000316 µM
[36] = second compound 0.1 µM, first compound 0.001 µM
[37] = second compound 0.1 µM, first compound 0.00316 µM
[38] = second compound 0.1 µM, first compound 0.01 µM
[39] = second compound 0.316 µM, first compound 0.000316 µM
[40] = second compound 0.316 µM, first compound 0.001 µM
[41] = second compound 0.316 µM, first compound 0.00316 µM
[42] = second compound 0.316 µM, first compound 0.01 µM
[43] = second compound 1 µM, first compound 0.000316 µM
[44] = second compound 1 µM, first compound 0.001 µM
[45] = second compound 1 µM, first compound 0.00316 µM
[46] = second compound 1 µM, first compound 0.01 µM
[47] = second compound 3.16 µM, first compound 0.000316 µM
[48] = second compound 3.16 µM, first compound 0.001 µM
[49] = second compound 3.16 µM, first compound 0.00316 µM
[50] = second compound 3.16 µM, first compound 0.01 µM
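Also: spheroids exposed to agents for 7 days before readout.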

SMILES | IC50 (second compound 0.0316 µM) | IC50 (second compound 0.1 µM) | IC50 (second compound 0.316 µM) | IC50 (second compound 1 µM) | IC50 (second compound 3.16 µM) | viability, T/C [1] | viability, T/C [2] | viability, T/C [3] | viability, T/C [4] | viability, T/C [7] | viability, T/C [8] | viability, T/C [9] | viability, T/C [10] | viability, T/C [13] | viability, T/C [14] | viability, T/C [15] | viability, T/C [19] | viability, T/C [20] | viability, T/C [25] | viability, T/C [26] | other results
CC(C)NCC(C(=O)N1CCN(c2ncnc3c2C(C)CC3O)CC1)c1ccc(Cl)cc1 (stereo not given) + C=CC(=O)N1CCN(c2nc(OCC3CCCN3C)nc3c2CCN(c2cccc4cccc(C)c24)C3)CC1CC#N | > 10 µM | > 10 µM | > 10 µM | > 10 µM | 0.0436 µM | 84.5% | 83.1% | 81.1% | 75.4% | 90.8% | 79.2% | 69.9% | 65.9% | 89.3% | 74.3% | 67.9% | 83.5% | 72.5% | 55.9% | 37% | viability, T/C [5]: 75.6%; viability, T/C [6]: 62.5%; viability, T/C [11]: 79%; viability, T/C [12]: 56.9%; viability, T/C [16]: 68.9%; viability, T/C [17]: 69.8%; viability, T/C [18]: 57.2%; viability, T/C [21]: 61.5%; viability, T/C [22]: 58.7%; viability, T/C [23]: 61.4%; viability, T/C [24]: 48.3%; viability, T/C [27]: 33.8%; viability, T/C [28]: 26.8%; viability, T/C [29]: 16.4%; viability, T/C [30]: 6.38%
CC(C)n1nc(-c2ccc3oc(N)nc3c2)c2c(N)ncnc21 + C=CC(=O)N1CCN(c2nc(OCC3CCCN3C)nc3c2CCN(c2cccc4cccc(C)c24)C3)CC1CC#N | 0.0415 µM | 0.0242 µM | 0.0191 µM | 0.00871 µM | 0.00086 µM | 49.9% | 45.9% |  |  | 44.2% | 41.2% |  |  | 45.1% | 41.8% |  | 44.1% | 41.1% | 24% | 15.7% | viability, T/C [31]: 88.8%; viability, T/C [32]: 77.3%; viability, T/C [33]: 67.8%; viability, T/C [34]: 60.6%; viability, T/C [35]: 88.1%; viability, T/C [36]: 80.4%; viability, T/C [37]: 69.4%; viability, T/C [38]: 61.7%; viability, T/C [39]: 82.1%; viability, T/C [40]: 73.8%; viability, T/C [41]: 61.4%; viability, T/C [42]: 55.6%; viability, T/C [43]: 81.9%; viability, T/C [44]: 85.5%; viability, T/C [45]: 63.8%; viability, T/C [46]: 50.2%; viability, T/C [47]: 68.3%; viability, T/C [48]: 43.1%; viability, T/C [49]: 42.9%; viability, T/C [50]: 15.3%
CC1(C)CCC(CN2CCN(c3ccc(C(=O)NS(=O)(=O)c4ccc(NCC5CCOCC5)c([N+](=O)[O-])c4)c(Oc4cnc5[nH]ccc5c4)c3)CC2)=C(c2ccc(Cl)cc2)C1 + C=CC(=O)N1CCN(c2nc(OCC3CCCN3C)nc3c2CCN(c2cccc4cccc(C)c24)C3)CC1CC#N | 4.25 µM | 5.18 µM | 3.28 µM | 3.85 µM | 0.339 µM | 99.3% | 100% | 108% | 101% | 115% | 100% | 93.1% | 107% | 100% | 99.8% | 94.8% | 86.1% | 97.8% | 55.2% | 55% | viability, T/C [5]: 64.8%; viability, T/C [6]: 7.81%; viability, T/C [11]: 80.5%; viability, T/C [12]: 9.45%; viability, T/C [16]: 100%; viability, T/C [17]: 51.3%; viability, T/C [18]: 9.84%; viability, T/C [21]: 87.3%; viability, T/C [22]: 84.5%; viability, T/C [23]: 59%; viability, T/C [24]: 6.08%; viability, T/C [27]: 43.9%; viability, T/C [28]: 35.8%; viability, T/C [29]: 0.97%; viability, T/C [30]: 0.63%
CCN1CCN(Cc2ccc(Nc3ncc(F)c(-c4cc(F)c5nc(C)n(C(C)C)c5c4)n3)nc2)CC1 + C=CC(=O)N1CCN(c2nc(OCC3CCCN3C)nc3c2CCN(c2cccc4cccc(C)c24)C3)CC1CC#N | > 1 µM | > 1 µM | > 1 µM | > 1 µM | 0.01 µM | 91.2% | 89.1% | 89.3% | 89.6% | 75.9% | 74.5% | 77.7% | 91.2% | 78% | 78.4% | 76.6% | 78.1% | 68.5% | 46% | 41.3% | viability, T/C [33]: 105%; viability, T/C [34]: 102%; viability, T/C [37]: 93.1%; viability, T/C [38]: 93.6%; viability, T/C [41]: 101%; viability, T/C [42]: 88.1%; viability, T/C [16]: 82.5%; viability, T/C [45]: 75.7%; viability, T/C [46]: 86.1%; viability, T/C [21]: 72.4%; viability, T/C [22]: 82.3%; viability, T/C [49]: 53.1%; viability, T/C [50]: 54.1%; viability, T/C [27]: 49.4%; viability, T/C [28]: 47.6%
COc1cc2nccc(Oc3ccc(NC(=O)C4(C(=O)Nc5ccc(F)cc5)CC4)cc3)c2cc1OC + C=CC(=O)N1CCN(c2nc(OCC3CCCN3C)nc3c2CCN(c2cccc4cccc(C)c24)C3)CC1CC#N | > 10 µM | > 10 µM | > 10 µM | > 10 µM | 0.43 µM | 109% | 114% | 113% | 99.5% | 111% | 108% | 102% | 111% | 102% | 111% | 106% | 111% | 108% | 80.1% | 73.7% | viability, T/C [5]: 70.4%; viability, T/C [6]: 69.9%; viability, T/C [11]: 72.2%; viability, T/C [12]: 73%; viability, T/C [16]: 104%; viability, T/C [17]: 79.7%; viability, T/C [18]: 62.7%; viability, T/C [21]: 111%; viability, T/C [22]: 102%; viability, T/C [23]: 66.6%; viability, T/C [24]: 59.6%; viability, T/C [27]: 55%; viability, T/C [28]: 33.7%; viability, T/C [29]: 12.4%; viability, T/C [30]: 0.35%
Cn1ncnc1[C@H]1c2n[nH]c(=O)c3cc(F)cc(c23)N[C@@H]1c1ccc(F)cc1 + C=CC(=O)N1CCN(c2nc(OCC3CCCN3C)nc3c2CCN(c2cccc4cccc(C)c24)C3)CC1CC#N | > 0.1 µM | > 0.1 µM | > 0.1 µM | > 0.1 µM | > 0.1 µM | 97.8% | 96.1% |  |  | 106% | 89.5% |  |  | 112% | 88.6% |  | 102% | 99.4% | 59.5% | 59.7% | viability, T/C [31]: 115%; viability, T/C [32]: 117%; viability, T/C [33]: 108%; viability, T/C [34]: 103%; viability, T/C [35]: 106%; viability, T/C [36]: 108%; viability, T/C [37]: 98.7%; viability, T/C [38]: 108%; viability, T/C [39]: 110%; viability, T/C [40]: 111%; viability, T/C [41]: 106%; viability, T/C [42]: 102%; viability, T/C [43]: 100%; viability, T/C [44]: 114%; viability, T/C [45]: 108%; viability, T/C [46]: 101%; viability, T/C [47]: 69.6%; viability, T/C [48]: 61.4%; viability, T/C [49]: 63.3%; viability, T/C [50]: 67.7%
